Read-outs that look alike come from different tables or passages of the source.
Assays:
[1] = Determination of drug solubility; format: physicochemical; settings: for solubility: thermodynamic from solid
Method: For each test, approximately 5-10 mg was transferred to a 10 mL glass vial. Aqueous or organic solvent was added to each vial to achieve an overall concentration of 50 mg/mL. After vortexing aggressively for 2-3 minutes and sonicating in a bath sonicator for 5 minutes, undissolved drug was spun down at 1200 rpm for 5 minutes to generate a pellet. The supernatant was collected and filtered through a 0.2 μm nylon syringe filter into HPLC vials for drug content analysis. Drug concentration was determined by comparing against a standard calibration curve.

[2] = In vitro stability of bifunctional conjugates (HPLC, 254 nm); format: physicochemical; settings: PBS pH 7.0, 20% DMSO; one day
Method: Briefly, brinzolamide-PLA (n=4)-succinate-5-hydroxy-sunitinib (60-1) or dorzolamide-PLA (n=4)-succinate-5-hydroxy-sunitinib (58-5) was first dissolved in a solution of PBS (pH 7.0) with 20% DMSO (v/v) and incubated at 37° C. or 60° C. for 14 days.

[3] = biological target: T1, bovine erythrocyte carbonic anhydrase II (Bos taurus, UniProt P00921); test: Carbonic anhydrase II inhibition, colorimetric 4-nitrophenyl acetate hydrolysis; format: biochemical
T1 construct: purified bovine erythrocyte carbonic anhydrase II; from tissue; host or cells: bovine erythrocytes
Method: The catalytic activity of carbonic anhydrase II was assessed by a colorimetric method, in which 4-nitrophenyl acetate is hydrolyzed to acetate and nitrophenolate. The nitrophenolate ionizes to generate a bright yellow anion that is readily detected by measuring its absorbance at 350-400 nm. […] Acetazolamide was added as a positive control and 100% DMSO was added as a negative control. The reaction was initiated with the addition of 20 μL of 4-nitrophenyl acetate (0.7 mM in ethanol).

[4] = In vitro stability of latanoprost NCEs (RP-HPLC); format: physicochemical; settings: PBS pH 7.0, 20% DMSO, 37° C., 14 days
Method: Latanoprost and latanoprost-PLA conjugates were solubilized with the addition of 20% (v/v) DMSO and subsequently suspended to a concentration of 1 mg/mL in PBS (pH 7.0).

[5] = DMSO, organic solvent or mixture, read-out: Solubility DMSO
[6] = water / aqueous solvent, read-out: Solubility Water

T1 sequence (P00921 whole entry): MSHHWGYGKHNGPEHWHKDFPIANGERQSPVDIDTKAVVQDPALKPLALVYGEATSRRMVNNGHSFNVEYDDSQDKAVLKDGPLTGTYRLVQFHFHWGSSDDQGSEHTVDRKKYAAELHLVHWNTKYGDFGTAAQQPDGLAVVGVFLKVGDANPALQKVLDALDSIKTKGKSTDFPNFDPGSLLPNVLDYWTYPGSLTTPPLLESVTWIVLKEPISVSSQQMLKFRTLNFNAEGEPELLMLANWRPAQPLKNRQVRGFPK

solubility [1, 5] [mg/mL] | solubility [1, 6] [mg/mL] | degradation kinetics [2] | carbonic anhydrase inhibitory activity [3] | IC50 ([3]; n = 2) [nM] | in vitro stability [4] | solubility ([1]; DCM, organic solvent or mixture, read-out: Solubility DCM) [mg/mL] | solubility ([1]; organic solvent (not named), organic solvent or mixture, organic solvent, read-out: organic solubility) [mg/mL] | Solubility Water ([1]; water / aqueous solvent) | SMILES
> 50 | < 1 | rapidly decreasing after one day | lowest inhibitory activity | 222 ± 36.3 | – | – | – | – | CCN[C@H]1C[C@H](C)S(=O)(=O)c2sc(S(=O)(=O)NC(=O)[C@H](C)OC(=O)[C@H](C)OC(=O)[C@H](C)OC(=O)[C@H](C)OC(=O)CCC(=O)Oc3ccc4c(c3)/C(=C/c3[nH]c(C)c(C(=O)NCCN(CC)CC)c3C)C(=O)N4)cc21 [58-5, dorzolamide-PLA(n=4)-succinate-5-hydroxy-Sunitinib]
> 50 | < 1 | – | – | – | good stability | > 50 | > 50 | very low aqueous solubility | CC(C)OC(=O)CCC/C=C\C[C@@H]1[C@@H](CC[C@@H](O)CCc2ccccc2)[C@H](O)C[C@@H]1O [Latanoprost, latanoprost, reference compound]

From patent US10117950B2, “Compounds and compositions for the treatment of ocular disorders” (Graybug Vision, Inc., priority 2015, dated 2018)
